Tested on: hyper-permeable E. coli 901C
Assay: Broth microdilution MIC assay, hyper-permeable E. coli
Assay type: cell-based
Details: Escherichia coli, read-out: E. coli 901C MIC
Procedure, shortened: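 Visual no-growth endpoint defines the MIC. Inoculum of 5×10^5 CFU/mL in divalent-cation-supplemented Mueller-Hinton broth was exposed to 2-fold dilution series of compound, then incubated 16-20 hours at 37° C per CLSI.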

Nc1nc(/C(=N/O)C(=O)N[C@H]2Cc3cccc(C(=O)O)c3OB2O)cs1 [Example 6, (R,Z)-3-(2-(2-aminothiazol-4-yl)-2-(hydroxyimino)acetamido)-2-hydroxy-3,4-dihydro-2H-benzo[e][1,2]oxaborinine-8-carboxylic Acid] was tested, and the MIC was under 64 µg/mL.
